The source of these data is patent US20230151014A1 (Repare Therapeutics Inc., priority 2020, published 2023).

In the experiment the target is T1, recombinant human Myt1 (Homo sapiens, UniProt Q99640).
T1 construct: full length PKMYT1 recombinant human protein expressed in insect cells
T1 sequence (Q99640 1-499): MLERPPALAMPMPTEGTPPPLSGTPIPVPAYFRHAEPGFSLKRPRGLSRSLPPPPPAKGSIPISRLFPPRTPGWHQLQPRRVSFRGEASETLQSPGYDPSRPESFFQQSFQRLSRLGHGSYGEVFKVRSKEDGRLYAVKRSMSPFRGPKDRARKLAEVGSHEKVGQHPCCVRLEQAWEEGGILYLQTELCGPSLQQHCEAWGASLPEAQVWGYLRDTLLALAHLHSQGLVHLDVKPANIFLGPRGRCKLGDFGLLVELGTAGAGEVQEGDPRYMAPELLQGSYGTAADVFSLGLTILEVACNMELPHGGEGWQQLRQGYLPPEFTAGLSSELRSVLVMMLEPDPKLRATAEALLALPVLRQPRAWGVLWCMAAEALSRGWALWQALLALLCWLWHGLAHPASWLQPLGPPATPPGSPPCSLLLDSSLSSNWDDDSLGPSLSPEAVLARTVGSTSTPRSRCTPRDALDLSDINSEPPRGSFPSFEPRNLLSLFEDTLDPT
Nature of the experiment: Myt1 enzymatic assay (ADP-Glo kinase assay, IC50 and % max inhibition). Type of experiment: biochemical. To be noted: recombinant human Myt1 18 nM, ATP 10 μM. The protocol: Detection of Myt1 kinase activity utilized a recombinant human Myt1 kinase assay measuring the hydrolysis of ATP using a commercially available ADP-Glo Assay (ADP-Glo™ Kinase Assay from Promega, 10 000 assays, #V9102). […] After this, 5 μL of compounds (diluted in reaction buffer to 0.5% DMSO) was added to the microplate and the plate was spun briefly and incubated at 22° C. for 15 minutes. Ultra-Pure Adenosine Triphosphate (ATP) solution (ADP-Glo kit from Promega) was diluted in reaction buffer and 5 μL was added to the microplate, spun down briefly and incubated for 60 minutes at 30° C. […] After the 60-minute incubation, 15 μL of ADP-Glo reagent was added and the plate was spun briefly and sealed and incubated in the dark for 40 minutes at 22° C. […] Luminescence was read using the Envision (250 ms integration). The IC50 and the % max inhibition were calculated for each inhibitor compound tested.
For orientation: ADP-Glo turns the ADP formed in a reaction into a luminescent signal.

Broadly, the IC50 is the concentration that inhibits the measured activity by half. On to `Cc1ccc(O)c(C)c1-n1c(N)c(C(N)=O)c2nc(C#CCc3ccccc3)cnc21` [Compound 1], for which the IC50 was 50 nM.
Then `Cc1ccc(O)c(C)c1-n1c(N)c(C(N)=O)c2nc(CCC3CCCN3)cnc21` (stereo not drawn) [Compound 2, 6-amino-5-(3-hydroxy-2,6-dimethylphenyl)-2-(2-(pyrrolidin-2-yl)ethyl)-5H-pyrrolo[2,3-b]pyrazine-7-carboxamide], with 231 nM; and `Cc1ccc(O)c(C)c1-n1c(N)c(C(N)=O)c2nc(C#CC3CCCN3)cnc21` (stereo not drawn) [Compound 3], with 462 nM.
Then `Cc1ccc(O)cc1-n1c(N)c(C(N)=O)c2nc(-c3cn[nH]c3)ccc21` [Compound 5], with 277 nM.
Then `Cc1ccc(O)cc1-n1c(N)c(C(N)=O)c2nc(C3=CCCC3)ccc21` [Compound 6, 2-amino-5-(cyclopenten-1-yl)-1-(5-hydroxy-2-methyl-phenyl)pyrrolo[3,2-b]pyridine-3-carboxamide], with 1240 nM; and `Cc1ccc(O)cc1-n1c(N)c(C(N)=O)c2nc(-c3ccc(N4CCOCC4)nc3)ccc21` [Compound 7], with 605 nM.
In the case of `Cc1ccc(O)cc1-n1c(N)c(C(N)=O)c2nc(-c3ccc(N)nc3)ccc21` [Compound 8], the half-inhibitory concentration (IC50) stood at 164 nM.
Then `Cc1ccc(O)cc1-n1c(N)c(C(N)=O)c2nc(-c3cccc(C(=O)O)c3)ccc21` [Compound 9], with 363 nM.
Then `Cc1ccc(O)cc1-n1c(N)c(C(N)=O)c2nc(-c3ccc(C(=O)O)cc3)ccc21` [Compound 10], with 187 nM; and `Cc1ccc(O)cc1-n1c(N)c(C(N)=O)c2nc(-c3cc[nH]n3)ccc21` [Compound 11], with 252 nM; and `Cc1ccc(O)cc1-n1c(N)c(C(N)=O)c2nc(-c3ccn(C)n3)ccc21` [Compound 12], with 988 nM.
Then `Cc1ccc(O)cc1-n1c(N)c(C(N)=O)c2nc(-c3ccc(N4CCN(CCO)CC4)cc3)ccc21` [Compound 13], with 190 nM.
As for `Cc1ccc(O)cc1-n1c(N)c(C(N)=O)c2nc(-c3cccc(C#N)c3)ccc21` [Compound 14], the IC50 came to 480 nM.
For the molecule `Cc1ccc(O)cc1-n1c(N)c(C(N)=O)c2nc(-c3ccc(F)c(Cl)c3)ccc21` [Compound 15], the IC50 is 1090 nM.
Then `Cc1ccc(O)cc1-n1c(N)c(C(N)=O)c2nc(C#CCN3CCOCC3)ccc21` [Compound 16, 2-amino-1-(5-hydroxy-2-methyl-phenyl)-5-(3-morpholinoprop-1-ynyl)pyrrolo[3,2-b]pyridine-3-carboxamide], with 9630 nM; and `Cc1ccc(O)cc1-n1c(N)c(C(N)=O)c2nc(C#CCC(C)(C)O)ccc21` [Compound 17], with 9060 nM.
Then `Cc1ccc(O)cc1-n1c(N)c(C(N)=O)c2nc(CCCN3CCOCC3)ccc21` [Compound 18, 2-amino-1-(5-hydroxy-2-methyl-phenyl)-5-(3-morpholinopropyl)pyrrolo[3,2-b]pyridine-3-carboxamide], with 1940 nM; and `Cc1ccc(O)cc1-n1c(N)c(C(N)=O)c2nc(CCCC(C)(C)O)ccc21` [Compound 19], with 527 nM; and `Cc1ccc(O)cc1-n1c(N)c(C(N)=O)c2nc(-c3cccc(CC(=O)O)c3)ccc21` [Compound 20], with 182 nM.
Then `Cc1ccc(O)cc1-n1c(N)c(C(N)=O)c2nc(-c3ccc(CC(=O)O)cc3)ccc21` [Compound 21], with 283 nM; and `Cc1ccc(O)cc1-n1c(N)c(C(N)=O)c2nc(-c3ccnc(N)c3)ccc21` [Compound 22], with 79 nM.
`Cc1ccc(O)cc1-n1c(N)c(C(N)=O)c2nc(-c3nccs3)ccc21` [Compound 24]: the IC50 amounted to 29 nM.
Then `Cc1ccc(O)cc1-n1c(N)c(C(N)=O)c2nc(-c3cccc(F)n3)ccc21` [Compound 25], with 399 nM; and `Cc1ccc(O)c(C)c1-n1c(N)c(C(N)=O)c2nc(-c3nccs3)c(C)nc21` [Compound 31, 6-amino-5-(3-hydroxy-2,6-dimethyl-phenyl)-3-methyl-2-thiazol-2-yl-pyrrolo[2,3-b]pyrazine-7-carboxamide], with below 10 nM.
